Assay results taken from PubChem BioAssay AID1963848 (Molecular Pharmacology Branch, DTP, NCI, 2024).

Test system: 379773-124-R-J2-PDC spheroid viability
Experiment: Anticancer human tumor 379773-124-R-J2-PDC patient-derived endometrial carcinoma cell line growth inhibition [POLQ]
Conditions: spheroids with HUVEC and MSC; for IC50: curve of first compound; for viability, T/C: stronger effect = lower value
How it was run: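 Complex spheroid viability model combining PDC tumour cells with endothelial (HUVEC) and MSC stromal cells. Novobiocin, ART-558 or RP6685 were tested singly and in combination with standard and investigational anticancer drugs. Each was titrated in half-log steps from near clinical Cmax, or from 10 microM where Cmax was unknown.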

[1] = second compound 0.0316 µM, first compound 0.0316 µM
[2] = second compound 0.0316 µM, first compound 0.1 µM
[3] = second compound 0.0316 µM, first compound 0.316 µM
[4] = second compound 0.0316 µM, first compound 1 µM
[5] = second compound 0.0316 µM, first compound 3.16 µM
[6] = second compound 0.0316 µM, first compound 10 µM
[7] = second compound 0.1 µM, first compound 0.0316 µM
[8] = second compound 0.1 µM, first compound 0.1 µM
[9] = second compound 0.1 µM, first compound 0.316 µM
[10] = second compound 0.1 µM, first compound 1 µM
[11] = second compound 0.1 µM, first compound 3.16 µM
[12] = second compound 0.1 µM, first compound 10 µM
[13] = second compound 0.316 µM, first compound 0.0316 µM
[14] = second compound 0.316 µM, first compound 0.1 µM
[15] = second compound 0.316 µM, first compound 0.316 µM
[16] = second compound 0.316 µM, first compound 1 µM
[17] = second compound 0.316 µM, first compound 3.16 µM
[18] = second compound 0.316 µM, first compound 10 µM
[19] = second compound 1 µM, first compound 0.0316 µM
[20] = second compound 1 µM, first compound 0.1 µM
[21] = second compound 1 µM, first compound 0.316 µM
[22] = second compound 1 µM, first compound 1 µM
[23] = second compound 1 µM, first compound 3.16 µM
[24] = second compound 1 µM, first compound 10 µM
[25] = second compound 3.16 µM, first compound 0.0316 µM
[26] = second compound 3.16 µM, first compound 0.1 µM
[27] = second compound 3.16 µM, first compound 0.316 µM
[28] = second compound 3.16 µM, first compound 1 µM
[29] = second compound 3.16 µM, first compound 3.16 µM
[30] = second compound 3.16 µM, first compound 10 µM
[31] = second compound 10 µM, first compound 0.0316 µM
[32] = second compound 10 µM, first compound 0.1 µM
[33] = second compound 10 µM, first compound 0.316 µM
[34] = second compound 10 µM, first compound 1 µM
[35] = second compound 10 µM, first compound 3.16 µM
[36] = second compound 10 µM, first compound 10 µM
[37] = second compound 0.0316 µM, first compound 0.00316 µM
[38] = second compound 0.0316 µM, first compound 0.01 µM
[39] = second compound 0.1 µM, first compound 0.00316 µM
[40] = second compound 0.1 µM, first compound 0.01 µM
[41] = second compound 0.316 µM, first compound 0.00316 µM
[42] = second compound 0.316 µM, first compound 0.01 µM
[43] = second compound 1 µM, first compound 0.00316 µM
[44] = second compound 1 µM, first compound 0.01 µM
[45] = second compound 3.16 µM, first compound 0.00316 µM
[46] = second compound 3.16 µM, first compound 0.01 µM
[47] = second compound 10 µM, first compound 0.00316 µM
[48] = second compound 10 µM, first compound 0.01 µM
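Note: spheroids exposed to drugs for seven days before readout.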
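Throughout, for viability, T/C: percent viability relative to DMSO vehicle control taken as 100%.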

In the case of `CC1COCCN1c1cc(C2(S(C)(=N)=O)CC2)nc(-c2ccnc3[nH]ccc23)n1` (stereo not drawn) + Cc1cccc(N(C)C(=O)C2C(O)CCN2c2nc(C)cc(C(F)(F)F)c2C#N)c1, the IC50 (second compound 0.0316 µM) is reported as 2.06 µM, the IC50 (second compound 0.1 µM) is reported as 1.87 µM and the IC50 (second compound 0.316 µM) is reported as 1.97 µM. It also gave an IC50 (second compound 1 µM) of 1.84 µM, an IC50 (second compound 3.16 µM) of 2.03 µM and an IC50 (second compound 10 µM) of 1.63 µM. The viability, T/C [1] was 83.3%, the viability, T/C [2] was 84.7% and the viability, T/C [3] was 81.1%. It also gave a viability, T/C [4] of 77%, a viability, T/C [5] of 34.2% and a viability, T/C [6] of 5.98%. The viability, T/C [7] was 89.4%, the viability, T/C [8] was 91.2% and the viability, T/C [9] was 79.7%. The viability, T/C [10] was 81.5%, the viability, T/C [11] was 23.9% and the viability, T/C [12] was 5.96%. The viability, T/C [13] was 87.1%, the viability, T/C [14] was 97% and the viability, T/C [15] was 80.1%. The viability, T/C [16] was 78.6%, the viability, T/C [17] was 30.6% and the viability, T/C [18] was 8.62%. It also gave a viability, T/C [19] of 81.4%, a viability, T/C [20] of 78.8% and a viability, T/C [21] of 79.8%. The viability, T/C [22] was 69.4%, the viability, T/C [23] was 32.7% and the viability, T/C [24] was 6.64%. It also gave a viability, T/C [25] of 84.4%, a viability, T/C [26] of 88.7% and a viability, T/C [27] of 79.2%. The viability, T/C [28] was 61.8%, the viability, T/C [29] was 42.2% and the viability, T/C [30] was 7.75%. For the same compound, the viability, T/C [31] was 84.6%, the viability, T/C [32] was 73.3% and the viability, T/C [33] was 79.2%. The viability, T/C [34] was 62.5%, the viability, T/C [35] was 32.2% and the viability, T/C [36] was 8.39%.
For `CCCS(=O)(=O)Nc1ccc(F)c(C(=O)c2c[nH]c3ncc(-c4ccc(Cl)cc4)cc23)c1F` + Cc1cccc(N(C)C(=O)C2C(O)CCN2c2nc(C)cc(C(F)(F)F)c2C#N)c1, the IC50 (second compound 0.0316 µM) was greater than 10 µM, the IC50 (second compound 0.1 µM) was greater than 10 µM and the IC50 (second compound 0.316 µM) was greater than 10 µM. It also gave an IC50 (second compound 1 µM) greater than 10 µM, an IC50 (second compound 3.16 µM) greater than 10 µM and an IC50 (second compound 10 µM) greater than 10 µM. It also gave a viability, T/C [1] of 88.6%, a viability, T/C [2] of 102% and a viability, T/C [3] of 90.9%. For the same compound, the viability, T/C [4] was 99.4%, the viability, T/C [5] was 82.1% and the viability, T/C [6] was 62.3%. It also gave a viability, T/C [7] of 101%, a viability, T/C [8] of 89.5% and a viability, T/C [9] of 95.2%. It also gave a viability, T/C [10] of 87.4%, a viability, T/C [11] of 86.6% and a viability, T/C [12] of 58.7%. For the same compound, the viability, T/C [13] was 97.4%, the viability, T/C [14] was 98.5% and the viability, T/C [15] was 94.9%. For the same compound, the viability, T/C [16] was 87.1%, the viability, T/C [17] was 78.5% and the viability, T/C [18] was 60.1%. For the same compound, the viability, T/C [19] was 98.9%, the viability, T/C [20] was 88.7% and the viability, T/C [21] was 85.2%. It also gave a viability, T/C [22] of 86.5%, a viability, T/C [23] of 80.3% and a viability, T/C [24] of 64.3%. It also gave a viability, T/C [25] of 92%, a viability, T/C [26] of 90.4% and a viability, T/C [27] of 85.7%. It also gave a viability, T/C [28] of 85.3%, a viability, T/C [29] of 73.8% and a viability, T/C [30] of 63%. For the same compound, the viability, T/C [31] was 89.9%, the viability, T/C [32] was 92.1% and the viability, T/C [33] was 87.7%. The viability, T/C [34] was 83.9%, the viability, T/C [35] was 77.8% and the viability, T/C [36] was 53.9%.
`COc1cccc(OCCCN)c1-c1cc(Nc2cnc(C#N)cn2)n[nH]1` + Cc1cccc(N(C)C(=O)C2C(O)CCN2c2nc(C)cc(C(F)(F)F)c2C#N)c1 showed an IC50 (second compound 0.0316 µM) of 0.00672 µM, an IC50 (second compound 0.1 µM) of 0.00643 µM and an IC50 (second compound 0.316 µM) of 0.00604 µM. The IC50 (second compound 1 µM) was 0.00631 µM, the IC50 (second compound 3.16 µM) was 0.00603 µM and the IC50 (second compound 10 µM) was 0.00619 µM. It also gave a viability, T/C [37] of 87.1%, a viability, T/C [38] of 30.5% and a viability, T/C [1] of 2.41%. The viability, T/C [2] was 2.05%, the viability, T/C [3] was 1.74% and the viability, T/C [4] was 1.59%. It also gave a viability, T/C [39] of 92.8%, a viability, T/C [40] of 23.4% and a viability, T/C [7] of 3.34%. It also gave a viability, T/C [8] of 3.31%, a viability, T/C [9] of 2.36% and a viability, T/C [10] of 1.82%. It also gave a viability, T/C [41] of 85.5%, a viability, T/C [42] of 22.3% and a viability, T/C [13] of 3.19%. The viability, T/C [14] was 1.9%, the viability, T/C [15] was 1.95% and the viability, T/C [16] was 2.25%. For the same compound, the viability, T/C [43] was 93.4%, the viability, T/C [44] was 21.1% and the viability, T/C [19] was 3.23%. It also gave a viability, T/C [20] of 2.53%, a viability, T/C [21] of 2.26% and a viability, T/C [22] of 3%. It also gave a viability, T/C [45] of 84.3%, a viability, T/C [46] of 23.2% and a viability, T/C [25] of 3.07%. The viability, T/C [26] was 2.7%, the viability, T/C [27] was 2.36% and the viability, T/C [28] was 0.99%. The viability, T/C [47] was 88.8%, the viability, T/C [48] was 22.1% and the viability, T/C [31] was 4.5%. For the same compound, the viability, T/C [32] was 4.11%, the viability, T/C [33] was 2.59% and the viability, T/C [34] was 2.26%.
In the case of `Cn1ncnc1[C@H]1c2n[nH]c(=O)c3cc(F)cc(c23)N[C@@H]1c1ccc(F)cc1` + Cc1cccc(N(C)C(=O)C2C(O)CCN2c2nc(C)cc(C(F)(F)F)c2C#N)c1, the IC50 (second compound 0.0316 µM) is reported as greater than 0.1 µM, the IC50 (second compound 0.1 µM) is reported as greater than 0.1 µM and the IC50 (second compound 0.316 µM) is reported as greater than 0.1 µM. It also gave an IC50 (second compound 1 µM) greater than 0.1 µM, an IC50 (second compound 3.16 µM) of 0.0901 µM and an IC50 (second compound 10 µM) greater than 0.1 µM. It also gave a viability, T/C (second compound 0.0316 µM, first compound 0.000316 µM) of 79.1%, a viability, T/C (second compound 0.0316 µM, first compound 0.001 µM) of 78.9% and a viability, T/C [37] of 74.5%. It also gave a viability, T/C [38] of 89.8%, a viability, T/C [1] of 67.8% and a viability, T/C [2] of 60.8%. It also gave a viability, T/C (second compound 0.1 µM, first compound 0.000316 µM) of 86.3%, a viability, T/C (second compound 0.1 µM, first compound 0.001 µM) of 77.2% and a viability, T/C [39] of 90.2%. The viability, T/C [40] was 82.8%, the viability, T/C [7] was 61.5% and the viability, T/C [8] was 55.6%. It also gave a viability, T/C (second compound 0.316 µM, first compound 0.000316 µM) of 85.7%, a viability, T/C (second compound 0.316 µM, first compound 0.001 µM) of 79.7% and a viability, T/C [41] of 74.2%. For the same compound, the viability, T/C [42] was 73.6%, the viability, T/C [13] was 82.8% and the viability, T/C [14] was 55.5%. The viability, T/C (second compound 1 µM, first compound 0.000316 µM) was 76.8%, the viability, T/C (second compound 1 µM, first compound 0.001 µM) was 87.3% and the viability, T/C [43] was 75.8%. The viability, T/C [44] was 76.7%, the viability, T/C [19] was 65.6% and the viability, T/C [20] was 60.6%. It also gave a viability, T/C (second compound 3.16 µM, first compound 0.000316 µM) of 74.9%, a viability, T/C (second compound 3.16 µM, first compound 0.001 µM) of 83.3% and a viability, T/C [45] of 67.6%. For the same compound, the viability, T/C [46] was 84.2%, the viability, T/C [25] was 70.2% and the viability, T/C [26] was 47.8%. The viability, T/C (second compound 10 µM, first compound 0.000316 µM) was 76.8%, the viability, T/C (second compound 10 µM, first compound 0.001 µM) was 78% and the viability, T/C [47] was 74.7%. For the same compound, the viability, T/C [48] was 70.5%, the viability, T/C [31] was 62.7% and the viability, T/C [32] was 54.1%.
